According to USRE39149E1, “Method of administering azithromycin” (Pfizer Inc., priority 1994, dated 2006):

Assay: Stability of azithromycin at acid pH / in stomach juices
Format: physicochemical
Excerpt: Thus, without being bound to any mechanism of action, it is surprising that rapid disintegration in the GI tract appears to be of importance to the invention.

CC[C@H]1OC(=O)[C@H](C)[C@@H](O[C@H]2C[C@@](C)(OC)[C@@H](O)[C@H](C)O2)[C@H](C)[C@@H](O[C@@H]2O[C@H](C)C[C@H](N(C)C)[C@H]2O)[C@](C)(O)C[C@@H](C)CN(C)[C@H](C)[C@@H](O)[C@]1(C)O [azithromycin, 9a-aza-9a-methyl-9-deoxo-9a-homoerythromycin A]
stability at low (acid) pH (on the order of the pH of stomach acid): unstable | stability on exposure to stomach juices (stomach juices, acid pH): breaks down
